Here are results for one compound from US20250346629A1, “USE OF D-ENANTIOMERIC PEPTIDE LIGANDS OF MONOMERIC ALPHA-SYNUCLEIN FOR THE THERAPY OF VARIOUS SYNUCLEINOPATHIES” (PRIAVOID GMBH, priority 2021, published 2025).

For the experiment, the target named is α-syn PFF oligomers (Homo sapiens, UniProt P37840). As to the kind of experiment: Decomposition of PFF oligomers (HPLC-SEC, DLS, AFM; FIG. 17). The class given is biochemical. The following applies: 100 nM monomer-equivalent PFF oligomers, 400 and 1600 nM SVD-1a, 3 days, 37° C., PBS pH 7.4. Here is the method:
PFF oligomers were produced as follows. Firstly, insoluble PFF was produced by incubating 300 μM of recombinant α-syn in a LoBind reaction tube (Eppendorf GmbH, GE) with a borosilicate glass bead (d=3.0 mm; Hilgenberg, DE) in 20 mM NaPi, pH 7.0, 150 […] for one week at 37° C. The insoluble PFF was harvested by ultracentrifugation at 100 000×g for 30 min at 4° C., and the pellet was washed several times with 20 mM NaPi, PH 7.0, 150 mM NaCl. The monomer equivalent concentration was determined by measuring the α-syn concentration in the supernatant after the first centrifugation and subtracting this from the start concentration for the fibrillation. The insoluble PFF was resuspended in buffer and frozen at −80° C. with liquid N2. […]
The elimination of PFF oligomers was assessed by SEC and the subsequent detection of the PFF oligomer and monomer peaks. […] The proteins were detected at A214.
The measurements were carried out using a SpectroSize 300 131 (XtalConcepts, GE) device and a sample volume of 1 ml in a sealed quartz cuvette (Hellma Group, GE). […] Data points were recorded every 30 seconds for time-dependent DLS measurements. […]
(A) HPLC-SEC measurement samples were injected onto a Bio SEC-3 column (300 Å, Agilent, USA). The PFF oligomers eluted after approximately 5 min, while the α-syn monomer was detected after approximately 8.6 min. […]

Square brackets hold non-standard residues; d marks the D form. Peptide text beside a SMILES is read from it.

Take `CC[C@@H](C)[C@@H](NC(=O)[C@@H](Cc1c[nH]cn1)NC(=O)[C@@H](CCC(=O)O)NC(=O)[C@@H](CCC(N)=O)NC(=O)[C@@H](Cc1c[nH]c2ccccc12)NC(=O)[C@@H](Cc1ccc(O)cc1)NC(=O)[C@H](NC(=O)[C@@H](CCC(=O)O)NC(=O)[C@@H](Cc1c[nH]cn1)NC(=O)[C@H](NC(=O)[C@H]1CCCN1C(=O)[C@@H](CC(C)C)NC(=O)[C@H](N)CCCNC(=N)N)[C@H](C)O)[C@H](C)O)C(=O)N[C@H](Cc1c[nH]c2ccccc12)C(=O)N[C@H](Cc1c[nH]cn1)C(=O)N[C@H](C)C(=O)N[C@H](CCCNC(=N)N)C(=O)N[C@H](CCCNC(=N)N)C(=O)N[C@H](CCCNC(=N)N)C(=O)N[C@H](CCCNC(=N)N)C(=O)N[C@H](CCCNC(=N)N)C(N)=O` [SVD-1a, rlpthetywqehiwharrrrr] (H-[dR][dL][dP][dT][dH][dE][dT][dY][dW][dQ][dE][dH][dI][dW][dH][dA][dR][dR][dR][dR][dR]-NH2): the “effect on PFF oligomers” value is on record as “decomposes the PFF oligomers into α-syn monomers”.
